One assay deals with Cathepsin L (Homo sapiens, UniProt Q6LAF7). The experiment in a line: Inhibition Assay. The settings on record: pH 5.5. As for the experimental part: (§1) Inhibitors were assayed against human liver Cathepsin L and B. Inhibitors were also evaluated for inhibition against purified recombinant Cathepsin K.
The target of another assay is T1, Cathepsin K (Homo sapiens, UniProt P43235).
T1 sequence (P43235 whole entry): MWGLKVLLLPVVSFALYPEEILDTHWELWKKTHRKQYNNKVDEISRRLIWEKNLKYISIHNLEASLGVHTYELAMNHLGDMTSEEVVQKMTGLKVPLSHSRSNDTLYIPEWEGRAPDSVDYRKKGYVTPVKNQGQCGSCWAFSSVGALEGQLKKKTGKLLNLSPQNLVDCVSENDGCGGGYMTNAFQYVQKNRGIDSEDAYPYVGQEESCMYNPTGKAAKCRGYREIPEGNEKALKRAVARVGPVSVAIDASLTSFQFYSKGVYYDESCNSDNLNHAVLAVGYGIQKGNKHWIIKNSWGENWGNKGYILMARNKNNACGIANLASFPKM
In words: Inhibition Assay. Particulars: pH 5.5. As to the method:
as §1

Cathepsin L, sequence (Q6LAF7 whole entry): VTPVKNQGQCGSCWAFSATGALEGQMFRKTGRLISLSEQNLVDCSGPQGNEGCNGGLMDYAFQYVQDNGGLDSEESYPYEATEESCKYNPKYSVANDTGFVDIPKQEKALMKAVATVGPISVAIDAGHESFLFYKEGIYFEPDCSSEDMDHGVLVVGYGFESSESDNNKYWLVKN

In general, Ki refers to the equilibrium dissociation constant of an inhibitor or competing ligand from its target. With `CC(C)C[C@H](NC(=O)c1ccc2ncccc2c1)C(=O)NC(C)C(=O)CNC(=O)Cc1cccc(-c2ccccn2)c1` (stereo partly specified) [Cathepsin Inhibitor, Column 4 Row 1], the inhibition constant (Ki) at Cathepsin L was found to be 130 nM; at Cathepsin K, 18 nM.
With `CC(NC(=O)[C@@H](NC(=O)c1ccc(C(F)(F)F)cc1)C(C)C)C(=O)CNC(=O)Cc1cccc(-c2ccccn2)c1` (stereo partly specified) [Cathepsin Inhibitor, Column 2 Row 3], the inhibitory constant (Ki) at Cathepsin L was greater than 1000 nM; at Cathepsin K, 430 nM.
Consider `CC(NC(=O)[C@@H](NC(=O)c1cc2ccccc2s1)C(C)C)C(=O)CNC(=O)Cc1cccc(-c2ccccn2)c1` (stereo partly specified) [Cathepsin Inhibitor, Column 6 Row 3], for which the inhibition constant (Ki) on Cathepsin L is greater than 1000 nM; on Cathepsin K, 300 nM.
With `CC(NC(=O)[C@H](Cc1ccccc1)NC(=O)c1ccc(C(F)(F)F)cc1)C(=O)CNC(=O)Cc1cccc(-c2ccccn2)c1` (stereo partly specified) [Cathepsin Inhibitor, Column 2 Row 2], the inhibitory constant (Ki) stood at 120 nM at Cathepsin L and 90 nM at Cathepsin K.
`COc1ccc(C(=O)N[C@@H](Cc2ccccc2)C(=O)NC(C)C(=O)CNC(=O)Cc2cccc(-c3ccccn3)c2)cc1OC` (stereo partly specified) [Cathepsin Inhibitor, Column 3 Row 2]: the inhibitory constant (Ki) was 53 nM at Cathepsin L and 25 nM at Cathepsin K.
For `COc1ccc(C(=O)N[C@@H](CC(C)C)C(=O)NC(C)C(=O)CNC(=O)Cc2cccc(-c3ccccn3)c2)cc1OC` (stereo partly specified) [Cathepsin Inhibitor, Column 3 Row 1], the Ki worked out at 150 nM at Cathepsin L and 7.4 nM at Cathepsin K.
For `CC(=O)N[C@@H](CC(C)C)C(=O)NC(C)C(=O)CNC(=O)Cc1cccc(-c2ccccn2)c1` (stereo partly specified) [Cathepsin Inhibitor, Column 1 Row 1], in that order: greater than 1000 nM and 200 nM.
Consider `CC(=O)N[C@@H](Cc1ccccc1)C(=O)NC(C)C(=O)CNC(=O)Cc1cccc(-c2ccccn2)c1` (stereo partly specified) [Cathepsin Inhibitor, Column 1 Row 2], for which the inhibitory constant (Ki) at Cathepsin L and on Cathepsin K was greater than 1000 nM in each case.
`CC(NC(=O)[C@H](Cc1ccccc1)NC(=O)c1cc2ccccc2s1)C(=O)CNC(=O)Cc1cccc(-c2ccccn2)c1` (stereo partly specified) [Cathepsin Inhibitor, Column 6 Row 2]: the inhibition constant (Ki) at Cathepsin L turned out to be 18 nM; at Cathepsin K, 16 nM.
Take `CC(C)C[C@H](NC(=O)c1ccc(C(F)(F)F)cc1)C(=O)NC(C)C(=O)CNC(=O)Cc1cccc(-c2ccccn2)c1` (stereo partly specified) [Cathepsin Inhibitor, Column 2 Row 1]: the Ki at Cathepsin L turned out to be 230 nM; at Cathepsin K it was 8.4 nM.
In the case of `CC(NC(=O)[C@H](Cc1ccccc1)NC(=O)c1ccc2ccccc2n1)C(=O)CNC(=O)Cc1cccc(-c2ccccn2)c1` (stereo partly specified) [Cathepsin Inhibitor, Column 5 Row 2], the Ki at Cathepsin L turned out to be 110 nM; at Cathepsin K, 170 nM.
For `CC(NC(=O)[C@@H](NC(=O)c1ccc2ccccc2n1)C(C)C)C(=O)CNC(=O)Cc1cccc(-c2ccccn2)c1` (stereo partly specified) [Cathepsin Inhibitor, Column 5 Row 3], the values for the inhibitory constant (Ki) at Cathepsin L and on Cathepsin K were greater than 1000 nM and 830 nM, respectively.
`CC(C)C[C@H](NC(=O)c1cc2ccccc2s1)C(=O)NC(C)C(=O)CNC(=O)Cc1cccc(-c2ccccn2)c1` (stereo partly specified) [Cathepsin Inhibitor, Column 6 Row 1]: the Ki on Cathepsin L came to 90 nM; on Cathepsin K it was 1.3 nM.
Turning to `COc1ccc(C(=O)N[C@H](C(=O)NC(C)C(=O)CNC(=O)Cc2cccc(-c3ccccn3)c2)C(C)C)cc1OC` (stereo partly specified) [Cathepsin Inhibitor, Column 3 Row 3], the Ki on Cathepsin L and at Cathepsin K was greater than 1000 nM in each case.
As for `CC(NC(=O)[C@H](Cc1ccccc1)NC(=O)c1ccc2ncccc2c1)C(=O)CNC(=O)Cc1cccc(-c2ccccn2)c1` (stereo partly specified) [Cathepsin Inhibitor, Column 4 Row 2], the Ki on Cathepsin L was 36 nM; on Cathepsin K it was 170 nM.
In the case of `CC(NC(=O)[C@@H](NC(=O)c1ccc2ncccc2c1)C(C)C)C(=O)CNC(=O)Cc1cccc(-c2ccccn2)c1` (stereo partly specified) [Cathepsin Inhibitor, Column 4 Row 3], the Ki on Cathepsin L and on Cathepsin K was greater than 1000 nM throughout.
As for `CC(C)C[C@H](NC(=O)c1ccc2ccccc2n1)C(=O)NC(C)C(=O)CNC(=O)Cc1cccc(-c2ccccn2)c1` (stereo partly specified) [Cathepsin Inhibitor, Column 5 Row 1], the inhibition constant Ki at Cathepsin L was 130 nM; on Cathepsin K it was 1.7 nM.
With `CC(=O)N[C@H](C(=O)NC(C)C(=O)CNC(=O)Cc1cccc(-c2ccccn2)c1)C(C)C` (stereo partly specified) [Cathepsin Inhibitor, Column 1 Row 3], the inhibitory constant (Ki) on Cathepsin L and at Cathepsin K was greater than 1000 nM in each case.

(Values after BindingDB's records for doi:10.1021/cc9800374 (Smithkline Beecham Pharmaceuticals, 1999).)
